From patent US20240335569A1, “FIBROBLAST ACTIVATION PROTEIN INHIBITORS AND USE THEREOF” (3 B PHARMACEUTICALS GMBH, priority 2021, published 2024)

Experiments:
Recombinant mouse FAP = Recombinant mouse FAP (Mus musculus (Mouse), UniProt P97321); assay: FAP protease activity assay (mouse), FRET-based; type: biochemical
Method: (§1) In order to determine the inhibitory activity a FRET-based FAP protease activity assay was established.
Four parameter logistic (4PL) curve fitting and pIC50 calculations were performed using ActivityBase software.

[1] = target: FAP-expressing human WI-38 fibroblasts (Homo sapiens (Human), UniProt Q12884); assay: FACS binding assay (competitive, Cy5-labeled 3BP-2935)
Sequence of FAP-expressing human WI-38 fibroblasts (Q12884 whole entry): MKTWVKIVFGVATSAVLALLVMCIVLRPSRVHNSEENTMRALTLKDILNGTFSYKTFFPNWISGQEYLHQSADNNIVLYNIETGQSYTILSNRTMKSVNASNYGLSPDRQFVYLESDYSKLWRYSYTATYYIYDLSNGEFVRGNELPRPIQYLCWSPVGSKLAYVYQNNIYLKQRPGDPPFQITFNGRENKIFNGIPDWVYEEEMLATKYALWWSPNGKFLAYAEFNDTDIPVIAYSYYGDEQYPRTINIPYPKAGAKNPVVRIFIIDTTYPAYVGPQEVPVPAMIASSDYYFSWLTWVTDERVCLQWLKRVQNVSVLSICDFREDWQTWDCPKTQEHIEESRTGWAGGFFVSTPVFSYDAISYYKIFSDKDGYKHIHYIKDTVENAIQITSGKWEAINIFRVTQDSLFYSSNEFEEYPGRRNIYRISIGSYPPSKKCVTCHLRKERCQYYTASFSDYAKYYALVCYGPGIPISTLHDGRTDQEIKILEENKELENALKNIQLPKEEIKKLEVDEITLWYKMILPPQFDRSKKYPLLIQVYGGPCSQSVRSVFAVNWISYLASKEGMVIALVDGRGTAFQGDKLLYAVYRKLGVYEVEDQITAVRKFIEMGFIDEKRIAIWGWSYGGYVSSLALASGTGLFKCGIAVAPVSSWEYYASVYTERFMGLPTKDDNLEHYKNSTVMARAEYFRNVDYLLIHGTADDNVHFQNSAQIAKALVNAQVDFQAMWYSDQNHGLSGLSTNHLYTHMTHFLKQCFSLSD
Method: In order to determine binding of compounds according to the present invention to FAP-expressing cells, a competitive FACS binding assay was established. […] Cells were diluted in FACS buffer to a final concentration of 100.000 cells per ml and 200 μl of the cell suspension are transferred to a u-shaped non-binding 96-well plate (Greiner). […] Cell were washed twice with FACS buffer (see above) and resuspended in 200 μl FACS buffer. Cells were analyzed in an Attune NxT flow cytometer (Thermo Fisher Scientific). Median fluorescence intensities (Cy5 channel) were calculated by Attune NxT software and plotted against test compound concentrations. Four parameter logistic (4PL) curve fitting and pIC50 calculations were performed using ActivityBase software.

Human recombinant FAP [2] = target: T1, Human recombinant FAP (Homo sapiens (Human), UniProt Q12884); assay: FAP protease activity assay (human), FRET-based; type: biochemical; details: for IC50: read-out: pIC50 (Activity) (converted)
Method: as §1
Target sequence in this assay (Q12884 26-760): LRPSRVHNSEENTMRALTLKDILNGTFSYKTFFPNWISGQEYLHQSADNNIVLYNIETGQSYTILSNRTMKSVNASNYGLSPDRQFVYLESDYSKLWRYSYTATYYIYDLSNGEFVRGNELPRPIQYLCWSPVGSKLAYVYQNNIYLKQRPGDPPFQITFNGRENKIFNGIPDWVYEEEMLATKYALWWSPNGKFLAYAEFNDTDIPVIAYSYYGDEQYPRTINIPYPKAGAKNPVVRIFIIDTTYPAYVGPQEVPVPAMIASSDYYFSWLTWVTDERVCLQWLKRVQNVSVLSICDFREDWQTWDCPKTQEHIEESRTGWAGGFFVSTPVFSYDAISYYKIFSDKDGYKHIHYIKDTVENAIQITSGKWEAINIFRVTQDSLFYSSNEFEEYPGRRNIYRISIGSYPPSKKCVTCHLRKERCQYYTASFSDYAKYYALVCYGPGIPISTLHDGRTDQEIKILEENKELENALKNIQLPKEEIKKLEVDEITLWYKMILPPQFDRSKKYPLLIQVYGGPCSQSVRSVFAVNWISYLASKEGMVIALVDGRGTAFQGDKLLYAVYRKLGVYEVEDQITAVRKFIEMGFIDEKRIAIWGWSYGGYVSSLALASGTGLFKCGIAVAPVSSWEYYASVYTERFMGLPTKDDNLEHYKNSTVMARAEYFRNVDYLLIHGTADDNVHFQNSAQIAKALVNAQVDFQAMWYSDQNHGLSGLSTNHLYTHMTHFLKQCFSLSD
Four parameter logistic (4PL) curve fitting and pIC50 calculations were performed using ActivityBase software (IDBS).

Recombinant human DPP4 = Recombinant human DPP4 (Homo sapiens (Human), UniProt P27487); assay: DPP4 protease activity assay; type: biochemical
Sequence of Recombinant human DPP4 (P27487 whole entry): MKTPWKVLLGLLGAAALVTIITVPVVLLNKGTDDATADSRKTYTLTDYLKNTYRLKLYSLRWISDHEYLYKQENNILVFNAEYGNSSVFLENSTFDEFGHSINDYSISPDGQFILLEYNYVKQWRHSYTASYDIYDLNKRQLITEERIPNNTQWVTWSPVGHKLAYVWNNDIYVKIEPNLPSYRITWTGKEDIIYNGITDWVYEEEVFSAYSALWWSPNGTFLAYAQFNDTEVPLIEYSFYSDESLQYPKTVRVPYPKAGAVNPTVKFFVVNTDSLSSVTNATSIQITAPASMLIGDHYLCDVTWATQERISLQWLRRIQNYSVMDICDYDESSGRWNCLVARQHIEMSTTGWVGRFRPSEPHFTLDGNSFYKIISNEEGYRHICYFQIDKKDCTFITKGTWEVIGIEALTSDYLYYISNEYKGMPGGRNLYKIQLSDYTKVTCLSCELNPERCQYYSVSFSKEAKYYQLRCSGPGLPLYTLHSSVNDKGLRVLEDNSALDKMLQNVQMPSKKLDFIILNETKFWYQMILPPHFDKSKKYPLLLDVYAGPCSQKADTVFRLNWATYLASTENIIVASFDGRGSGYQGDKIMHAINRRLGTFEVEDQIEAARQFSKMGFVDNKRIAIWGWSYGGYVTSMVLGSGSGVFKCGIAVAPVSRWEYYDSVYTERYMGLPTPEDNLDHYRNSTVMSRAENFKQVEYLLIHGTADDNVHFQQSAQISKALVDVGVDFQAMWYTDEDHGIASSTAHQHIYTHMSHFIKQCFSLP
Method: The PREP activity assay was performed using the FACS buffer (PBS including 1% FBS, Sigma-Aldrich, Cat #D8537). […] The DPP4 activity assay was performed in DPP assay buffer (25 mM Tris, pH 8.0). […] Four parameter logistic (4PL) curve fitting and pIC50 calculations were performed using ActivityBase software.

Human recombinant FAP [3] = target: T1, Human recombinant FAP; assay: Surface plasmon resonance assay (Biacore T200, SCK); type: binding; details: for HL [min] (Biacore): SPR dissociation half-life; for Kd: read-out: pKD (Biacore) (converted)
Method: Surface plasmon resonance studies were performed using a Biacore™ T200 SPR system (Cytiva, formerly GE Healthcare). Briefly, polarized light is directed towards a gold-labeled sensor surface, and minimum intensity reflected light is detected. The angle of reflected light changes as molecules bind and dissociate. […] Test compounds are contacted with the loaded surface, and a real-time interaction profile with the FAP ligand is recorded in a sensorgram. In real-time, the association and dissociation of a binding interaction is measured, enabling calculation of association and dissociation rate constants and the corresponding affinity constants. Importantly, a background response is generated due to the difference in the refractive indices of the running and sample buffers, as well as unspecific binding of the test compounds to the flow cell surface. This background is measured and subtracted by running the sample on a control flow cell coated with the same density of capture antibody in the absence of immobilized FAP. Furthermore, baseline drift correction of the binding data is performed, which is caused by slow dissociation of the captured FAP from the immobilized antibody. This drift is measured by injecting running buffer through a flow cell with the antibody and FAP immobilized to the sensor surface.
Biacore™ CM5 sensor chips were used. […] A 150 μL aliquot was transferred into plastic vials and placed into the sample rack of the Biacore™ T200 instrument. Amine Coupling Kit Reagent solutions were transferred into plastic vials and placed into the sample rack: 90 μL of 0.4 M 1-ethyl-3-(3-dimethylaminopropyl) carbodiimide (EDC), and 90 μL of 0.1 M N-hydroxysuccinimide (NHS). A 130 μL aliquot of 1 M ethanolamine-HCl, pH 8.5, was transferred into plastic vials and placed into the sample rack. The Biacore™ liquid system was set-up as follows: Separate bottles containing distilled water (1 L), Running Buffer (500 mL), as well as an empty bottle for waste were placed onto the buffer tray. A preinstalled program for immobilization was used, with an immobilization level of 7000 RU. Immobilization was performed at 25° C. The immobilization procedure of anti-FAP antibodies was performed, as described in the Table 4.
Human recombinant FAP was diluted in Running Buffer to a final concentration of 20 μg/mL. A 100 μL aliquot of human FAP-Working-Solution was transferred into plastic vials and placed into a sample rack. A 0.5 mM Compound-Stock-Solution was prepared by dissolving each compound in DMSO. For each test compound, Compound-Stock-Solutions were diluted in Running Buffer (HBST) at 500 nM and further diluted with HBST-DMSO Buffer (0.1% DMSO). SPR binding analyses for binary complexes were performed in SCK mode at 25° C. Following three SCK measurements, a baseline drift was assessed by injecting running buffer through a flow cell, with the antibody and FAP immobilized to the sensor surface.
For each test compound, SPR raw data in the form of resonance units (RU) were plotted as sensorgrams using the Biacore™ T200 control software. The signal from the blank sensorgram was subtracted from that of the test compound sensorgram (blank corrected). The blank corrected sensorgram was corrected for baseline drift by subtracting the sensorgram of a SCK run without the test compound (running buffer only). The association rate (kon), dissociation rate (koff), dissociation constant (KD), and t1/2 were calculated from Blank-normalized SPR data using the 1:1 Langmuir binding model from the Biacore™ T200 evaluation software. Raw data and fit results were imported as text files in IDBS. The pKD value (negative decadic logarithm of dissociation constant) was calculated in the IDBS excel template.
Target sequence in this assay (Q12884 whole entry): as the sequence (Q12884 whole entry) above

[4] = recombinant mouse FAP protease activity
[5] = human FAP protease activity, FRET

Sequence of Recombinant mouse FAP (P97321 whole entry): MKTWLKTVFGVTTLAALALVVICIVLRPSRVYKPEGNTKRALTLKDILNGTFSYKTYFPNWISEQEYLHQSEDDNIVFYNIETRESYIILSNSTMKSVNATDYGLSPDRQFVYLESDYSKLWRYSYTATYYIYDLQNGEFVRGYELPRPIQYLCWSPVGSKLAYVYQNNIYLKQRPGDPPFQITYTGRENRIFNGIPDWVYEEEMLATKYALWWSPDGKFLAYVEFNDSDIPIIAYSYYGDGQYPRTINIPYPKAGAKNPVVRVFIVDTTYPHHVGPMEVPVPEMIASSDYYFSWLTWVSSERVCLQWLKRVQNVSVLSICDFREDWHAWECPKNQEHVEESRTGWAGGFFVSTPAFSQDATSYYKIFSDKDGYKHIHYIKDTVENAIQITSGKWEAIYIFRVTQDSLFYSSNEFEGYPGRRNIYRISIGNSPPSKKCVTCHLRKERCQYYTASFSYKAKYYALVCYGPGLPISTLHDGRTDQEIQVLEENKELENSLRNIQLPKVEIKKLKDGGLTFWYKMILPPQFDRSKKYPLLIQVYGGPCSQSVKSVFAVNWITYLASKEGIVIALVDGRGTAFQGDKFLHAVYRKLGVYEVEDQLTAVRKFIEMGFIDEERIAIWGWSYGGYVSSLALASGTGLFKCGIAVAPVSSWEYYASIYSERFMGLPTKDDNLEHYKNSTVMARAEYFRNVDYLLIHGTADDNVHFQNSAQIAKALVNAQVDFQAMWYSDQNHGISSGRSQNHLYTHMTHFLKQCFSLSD

pIC50 (FACS) ([1]; WI-38 fibroblasts) | pIC50 (Activity) (Human recombinant FAP [2]; [5]) | HL [min] (Biacore) (Human recombinant FAP [3]) | SMILES | further results
 |  |  | N#C[C@@H]1CC(F)(F)CN1C(=O)CNC(=O)c1ccnc2ccc(OCCCN3CCN(C(=O)CN4CCN5CCN6CCN(CC4)CC(=O)[O][Eu]([O]C(=O)C6)[O]C(=O)C5)CC3)cc12 [Compound 3BP-3663] | pIC50 (mouseFAP) (Recombinant mouse FAP; recombinant mouse FAP, FRET protease activity): 9.1; pIC50 (FACS) ([1]; FAP-expressing WI-38 fibroblasts): 8.6; pIC50 (Activity) (Human recombinant FAP [2]; recombinant human FAP, FRET protease activity): 9.3
7.3 | 8.5 |  | CS(=O)(=O)c1ccc(-c2ccc3nccc(C(=O)NCC(=O)N4C[C@H](F)C[C@H]4C#N)c3c2)cc1 [Compound 3BP-3773] | pIC50 (mouseFAP) (Recombinant mouse FAP; [4]): 8; pIC50 (DPP4) (Recombinant human DPP4): <6
 |  | >150 | N#C[C@@H]1CCCN1C(=O)CNC(=O)c1ccnc2ccc(-c3ccc(C(=O)NCCCNC(=O)CN4CCN(CC(=O)O)CCN(CC(=O)O)CCN(CC(=O)O)CC4)cc3)cc12 [Compound 3BP-3785] | 
8.9 | 9.3 |  | Cc1cc2nccc(C(=O)NCC(=O)N3CC(F)(F)C[C@H]3C#N)c2cc1-c1ccc(S(C)(=O)=O)cc1 [Compound 3BP-4026] | pIC50 (mouseFAP) (Recombinant mouse FAP; [4]): 8.8
8.5 | 8.9 |  | O=C(NCC(=O)N1CCC[C@H]1B(O)O)c1ccnc2ccccc12 [Compound 3BP-4081] | 
 |  | >150 | CS(=O)(=O)c1ccc(-c2ccc3nccc(C(=O)NCC(=O)N4CC(F)(F)C[C@H]4C#N)c3c2)c(CO)c1 [Compound 3BP-4084, (S)—N-(2-(2-cyano-4,4-difluoropyrrolidin-1-yl)-2-oxoethyl)-6-(2-(hydroxymethyl)-4-(methylsulfonyl)phenyl)quinoline-4-carboxamide] | 
7.7 | 8.2 |  | COc1cccc2c(C(=O)NCC(=O)N3CC(F)(F)C[C@H]3C#N)ccnc12 [Compound 3BP-4085] | 
7.6 | 7.9 |  | Cc1cccc2c(C(=O)NCC(=O)N3CC(F)(F)C[C@H]3C#N)ccnc12 [Compound 3BP-4150] | 
7.7 | 8.5 |  | CCOc1cccc2c(C(=O)NCC(=O)N3CC(F)(F)C[C@H]3C#N)ccnc12 [Compound 3BP-4151] | 
 |  | >150 | O=C(O)CN1CCN(CC(=O)O)CCN(CC(=O)NCCCNC(=O)c2ccc(-c3ccc4nccc(C(=O)NCC(=O)N5CCC[C@H]5B(O)O)c4c3)cc2)CCN(CC(=O)O)CC1 [Compound 3BP-4201] | pKD (Biacore) (Human recombinant FAP [3]; SPR): >10.5

SMILES | pIC50 (FACS) ([1]; WI-38 fibroblasts) | pIC50 (Activity) (Human recombinant FAP [2]; [5]) | HL [min] (Biacore) (Human recombinant FAP [3]) | further results
N#C[C@@H]1CC(F)(F)CN1C(=O)CNC(=O)c1ccnc2ccc(-c3ccc(C(=O)NCCN4CCN(C(=O)CN5CCN(CC(=O)O)CCN(CC(=O)O)CCN(CC(=O)O)CC5)CC4)nc3)cc12 [Compound 3BP-4076, (S)-2,2′,2″-(10-(2-(4-(2-(5-(4-(2-(2-cyano-4,4-difluoropyrrolidin-1-yl)-2-oxoethylcarbamoyl)quinolin-6-yl)picolinamido)ethyl)piperazin-1-yl)-2-oxoethyl)-1,4,7,10-tetraazacyclododecane-1,4,7-triyl)triacetic Acid] |  |  | >150 | Kd (Human recombinant FAP [3]; SPR): < 0.0316 nM; IC50 ([1]; WI-38 fibroblasts): 1.26 nM; IC50 (Human recombinant FAP [2]; [5]): 0.631 nM
O=C(NCC(=O)N1CCC[C@H]1C(=O)CO)c1ccnc2ccccc12 [Compound 3BP-4197, (S)—N-(2-(2-(2-hydroxyacetyl)pyrrolidin-1-yl)-2-oxoethyl)quinoline-4-carboxamide] |  |  | 3.1 | Kd (Human recombinant FAP [3]; SPR): 1 nM; IC50 ([1]; WI-38 fibroblasts): 10 nM; IC50 (Human recombinant FAP [2]; [5]): 3.16 nM
